# Experimental data from PMC4728423, “Natural and synthetic flavonoid modulation of TRPC5 channels” (British Journal of Pharmacology, 2016).
# Experiments:
# TRPM2 channels = target: T1, TRPM2 channels (Homo sapiens, UniProt O94759); test: H2O2-evoked Ca2+ entry in cells overexpressing TRPM2; assay type: cell-based; settings: 10 μM compound, 1 mM H2O2, fura-2
# T1 construct: expressed in transfected cells
# TRPC3 channels = target: T2, TRPC3 channels (Homo sapiens, UniProt Q13507); test: OAG-evoked Ca2+ entry in cells overexpressing TRPC3; assay type: cell-based; settings: 10 μM compound, 50 μM OAG, fura-2
# T2 construct: expressed in transfected cells
# T2 sequence (Q13507 74-921 limits assumed): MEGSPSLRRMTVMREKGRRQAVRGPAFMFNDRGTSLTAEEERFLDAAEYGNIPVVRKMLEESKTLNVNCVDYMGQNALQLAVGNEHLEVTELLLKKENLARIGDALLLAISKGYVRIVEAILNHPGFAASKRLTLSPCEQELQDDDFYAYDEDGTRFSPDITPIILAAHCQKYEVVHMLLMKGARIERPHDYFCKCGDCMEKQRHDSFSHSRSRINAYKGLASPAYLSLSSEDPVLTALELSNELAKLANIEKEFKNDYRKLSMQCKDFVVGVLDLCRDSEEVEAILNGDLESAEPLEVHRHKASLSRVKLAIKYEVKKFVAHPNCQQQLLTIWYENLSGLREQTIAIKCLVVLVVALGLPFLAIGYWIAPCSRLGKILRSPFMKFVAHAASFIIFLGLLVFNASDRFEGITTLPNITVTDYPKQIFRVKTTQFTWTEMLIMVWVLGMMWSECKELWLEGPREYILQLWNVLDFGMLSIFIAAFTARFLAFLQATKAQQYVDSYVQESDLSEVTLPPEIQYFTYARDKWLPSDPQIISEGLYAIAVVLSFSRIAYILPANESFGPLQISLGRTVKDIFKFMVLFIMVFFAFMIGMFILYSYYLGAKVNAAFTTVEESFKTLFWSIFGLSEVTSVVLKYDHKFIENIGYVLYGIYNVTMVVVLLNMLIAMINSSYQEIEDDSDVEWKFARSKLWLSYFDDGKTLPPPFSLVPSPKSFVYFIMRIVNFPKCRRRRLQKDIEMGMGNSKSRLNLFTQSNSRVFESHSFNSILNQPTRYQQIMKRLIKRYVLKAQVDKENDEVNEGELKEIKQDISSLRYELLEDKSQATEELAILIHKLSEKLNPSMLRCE
# human TRPC5 [1] = target: T3, human TRPC5 (Homo sapiens, UniProt Q9UL62); test: Outside-out patch recordings from TRPC5 Tet+ cells; assay type: cell-based; settings: outside-out patch, (-)-Englerin A-activated TRPC5
# T3 construct: expressed in transfected cells
# T3 sequence (Q9UL62 1-973): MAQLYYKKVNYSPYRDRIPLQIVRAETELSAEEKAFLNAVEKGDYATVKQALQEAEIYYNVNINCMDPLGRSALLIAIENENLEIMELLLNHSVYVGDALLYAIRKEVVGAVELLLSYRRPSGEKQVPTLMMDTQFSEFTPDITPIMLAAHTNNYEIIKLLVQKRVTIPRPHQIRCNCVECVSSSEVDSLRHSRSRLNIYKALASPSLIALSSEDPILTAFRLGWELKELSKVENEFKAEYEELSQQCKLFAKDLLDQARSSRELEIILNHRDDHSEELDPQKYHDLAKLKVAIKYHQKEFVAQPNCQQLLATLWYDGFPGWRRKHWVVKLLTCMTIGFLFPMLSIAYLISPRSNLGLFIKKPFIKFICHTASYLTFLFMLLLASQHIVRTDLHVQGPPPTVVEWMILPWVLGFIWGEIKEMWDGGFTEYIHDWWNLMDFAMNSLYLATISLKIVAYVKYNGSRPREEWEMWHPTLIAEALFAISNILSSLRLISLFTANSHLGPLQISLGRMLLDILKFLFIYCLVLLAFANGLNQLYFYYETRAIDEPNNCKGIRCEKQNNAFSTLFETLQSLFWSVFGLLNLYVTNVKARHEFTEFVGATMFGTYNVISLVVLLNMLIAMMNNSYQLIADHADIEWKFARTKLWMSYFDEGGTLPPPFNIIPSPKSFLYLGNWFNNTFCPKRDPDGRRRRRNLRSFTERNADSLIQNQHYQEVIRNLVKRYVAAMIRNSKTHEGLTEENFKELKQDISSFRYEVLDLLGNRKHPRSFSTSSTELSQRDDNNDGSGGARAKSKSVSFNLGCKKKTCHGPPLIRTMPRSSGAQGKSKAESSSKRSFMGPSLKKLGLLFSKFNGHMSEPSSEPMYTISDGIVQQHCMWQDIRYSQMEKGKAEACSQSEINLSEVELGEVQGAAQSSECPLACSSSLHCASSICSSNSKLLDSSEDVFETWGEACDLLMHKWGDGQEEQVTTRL
# TRPV4 channels [2] = target: T4, TRPV4 channels (Homo sapiens, UniProt Q9HBA0); test: 4alphaPDD-evoked Ca2+ entry in CHO K1 cells expressing TRPV4; assay type: cell-based; settings: 10 μM compound, 1 μM 4αPDD, fluo-4
# T4 construct: expressed in transfected cells
# human TRPC5 [3] = target: T3, human TRPC5; test: Gd3+-evoked Ca2+ entry in TRPC5-expressing (Tet+) HEK 293 cells; assay type: cell-based
# human TRPC5 [4] = target: T3, human TRPC5; test: S1P- or LPC-evoked Ca2+ entry in TRPC5 (Tet+) HEK 293 cells; assay type: cell-based; settings: 10 μM compound, fura-2
# [5] = test system: endogenous Ca2+ entry mechanism; test: Ca2+ responses in control non-induced (Tet-) HEK cells with extracellular Ca2+; assay type: cell-based, human; settings: 10 μM compound
# [6] = target: T5, TRPC1-TRPC5 heteromeric channels (Homo sapiens, UniProt P48995+Q9UL62); test: Whole-cell recordings of TRPC1-TRPC5 heteromeric channels stimulated by (-)-Englerin A; assay type: cell-based; settings: 5 μM compound, 100 nM (-)-Englerin A
# T5 construct: expressed in transfected cells; host or cells: HEK 293-MSR, transient, Lipofectamine 2000
# TRPC4 = target: T6, TRPC4 (Homo sapiens, UniProt Q9UBN4); test: Outside-out patch recordings from TRPC4 Tet+ cells stimulated by (-)-Englerin A; assay type: cell-based; settings: 5 μM compound, 100 nM (-)-Englerin A
# T6 construct: expressed in transfected cells
# T6 sequence (Q9UBN4 1-893 isoform Q9UBN4-2): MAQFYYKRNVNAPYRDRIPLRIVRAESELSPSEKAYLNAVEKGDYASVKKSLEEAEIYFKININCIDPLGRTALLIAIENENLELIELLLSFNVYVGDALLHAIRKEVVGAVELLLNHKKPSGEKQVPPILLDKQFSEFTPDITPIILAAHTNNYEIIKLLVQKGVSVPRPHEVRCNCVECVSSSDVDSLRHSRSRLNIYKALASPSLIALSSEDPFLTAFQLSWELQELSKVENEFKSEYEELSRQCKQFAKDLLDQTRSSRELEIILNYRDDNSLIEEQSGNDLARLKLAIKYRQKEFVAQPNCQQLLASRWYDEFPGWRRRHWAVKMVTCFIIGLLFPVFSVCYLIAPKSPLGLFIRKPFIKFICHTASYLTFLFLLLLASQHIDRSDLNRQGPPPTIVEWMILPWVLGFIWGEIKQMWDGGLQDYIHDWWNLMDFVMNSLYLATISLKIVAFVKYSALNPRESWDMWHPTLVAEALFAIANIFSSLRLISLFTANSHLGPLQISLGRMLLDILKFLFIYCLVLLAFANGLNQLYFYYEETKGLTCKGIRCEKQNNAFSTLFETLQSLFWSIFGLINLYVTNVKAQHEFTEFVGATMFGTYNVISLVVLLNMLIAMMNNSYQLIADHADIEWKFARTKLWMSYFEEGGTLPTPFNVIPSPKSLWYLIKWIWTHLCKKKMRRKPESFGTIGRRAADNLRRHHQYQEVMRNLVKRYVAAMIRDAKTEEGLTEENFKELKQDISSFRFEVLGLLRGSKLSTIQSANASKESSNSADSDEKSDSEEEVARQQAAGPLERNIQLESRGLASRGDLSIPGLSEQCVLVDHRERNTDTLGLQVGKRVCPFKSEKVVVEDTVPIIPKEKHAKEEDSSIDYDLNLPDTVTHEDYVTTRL
# [7] = test system: endogenous Ca2+ release signal; test: Endogenous Ca2+ release in non-induced (Tet-) TRPC5 HEK cells; assay type: cell-based, human; settings: 10 μM compound, no extracellular Ca2+
# human TRPC5 [8] = target: T3, human TRPC5; test: Whole-cell patch clamp of TRPC5-expressing (Tet+) HEK 293 cells; assay type: cell-based; settings: 10 μM compound
# TRPV4 channels [9] = test system: TRPV4 channels; design: method as in Ma et al., 2012; settings: ref Ma et al., 2012; cited from earlier work
# [10] = test system: GABA-evoked ionic currents; design: method as in Goutman et al., 2003; settings: ref Goutman et al., 2003; cited from earlier work
# TRPC5 = test system: TRPC5; design: method as in Wong et al., 2010; settings: ref Wong et al., 2010; cited from earlier work
# 3T3-L1 cells = settings: ref Harmon and Harp, 2001; cited from earlier work
# T1 sequence (O94759 whole entry): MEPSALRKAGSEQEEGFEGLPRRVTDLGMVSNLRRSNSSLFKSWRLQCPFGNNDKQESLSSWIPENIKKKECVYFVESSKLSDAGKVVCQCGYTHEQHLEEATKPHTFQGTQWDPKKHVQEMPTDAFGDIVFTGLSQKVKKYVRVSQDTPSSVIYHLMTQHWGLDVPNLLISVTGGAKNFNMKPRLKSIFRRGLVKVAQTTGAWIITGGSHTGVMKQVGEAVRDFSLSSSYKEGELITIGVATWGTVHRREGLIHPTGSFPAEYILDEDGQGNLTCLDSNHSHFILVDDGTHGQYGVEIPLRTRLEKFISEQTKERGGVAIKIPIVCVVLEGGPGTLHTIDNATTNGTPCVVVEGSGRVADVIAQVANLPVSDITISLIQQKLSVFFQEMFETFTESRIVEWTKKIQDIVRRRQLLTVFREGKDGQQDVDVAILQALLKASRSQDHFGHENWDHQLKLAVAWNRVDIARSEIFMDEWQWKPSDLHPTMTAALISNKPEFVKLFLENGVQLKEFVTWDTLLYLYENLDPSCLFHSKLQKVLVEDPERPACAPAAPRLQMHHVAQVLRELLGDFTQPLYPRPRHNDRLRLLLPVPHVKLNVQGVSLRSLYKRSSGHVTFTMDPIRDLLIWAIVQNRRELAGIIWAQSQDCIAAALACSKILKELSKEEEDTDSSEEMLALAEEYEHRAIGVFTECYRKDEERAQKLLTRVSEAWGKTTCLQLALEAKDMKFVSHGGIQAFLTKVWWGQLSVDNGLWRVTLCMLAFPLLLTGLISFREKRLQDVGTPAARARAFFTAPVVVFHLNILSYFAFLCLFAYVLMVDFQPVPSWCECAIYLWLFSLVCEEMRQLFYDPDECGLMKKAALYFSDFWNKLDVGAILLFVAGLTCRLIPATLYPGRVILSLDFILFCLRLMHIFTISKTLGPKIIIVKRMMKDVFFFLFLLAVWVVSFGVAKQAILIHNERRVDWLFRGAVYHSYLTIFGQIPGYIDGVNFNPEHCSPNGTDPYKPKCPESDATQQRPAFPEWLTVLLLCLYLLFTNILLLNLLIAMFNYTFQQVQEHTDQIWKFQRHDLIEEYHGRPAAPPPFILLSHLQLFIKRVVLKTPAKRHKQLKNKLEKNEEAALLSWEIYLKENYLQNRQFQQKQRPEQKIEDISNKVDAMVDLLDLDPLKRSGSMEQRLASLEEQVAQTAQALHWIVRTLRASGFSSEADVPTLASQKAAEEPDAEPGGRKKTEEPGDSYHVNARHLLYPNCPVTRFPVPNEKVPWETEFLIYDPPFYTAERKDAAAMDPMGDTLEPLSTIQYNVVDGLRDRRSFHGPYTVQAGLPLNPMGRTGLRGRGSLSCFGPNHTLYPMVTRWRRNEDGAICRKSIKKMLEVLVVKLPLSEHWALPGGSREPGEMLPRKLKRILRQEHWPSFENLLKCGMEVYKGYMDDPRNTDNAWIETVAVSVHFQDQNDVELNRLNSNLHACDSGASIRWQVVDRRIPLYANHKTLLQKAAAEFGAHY
# T5 sequence (P48995 whole entry, one chain of several): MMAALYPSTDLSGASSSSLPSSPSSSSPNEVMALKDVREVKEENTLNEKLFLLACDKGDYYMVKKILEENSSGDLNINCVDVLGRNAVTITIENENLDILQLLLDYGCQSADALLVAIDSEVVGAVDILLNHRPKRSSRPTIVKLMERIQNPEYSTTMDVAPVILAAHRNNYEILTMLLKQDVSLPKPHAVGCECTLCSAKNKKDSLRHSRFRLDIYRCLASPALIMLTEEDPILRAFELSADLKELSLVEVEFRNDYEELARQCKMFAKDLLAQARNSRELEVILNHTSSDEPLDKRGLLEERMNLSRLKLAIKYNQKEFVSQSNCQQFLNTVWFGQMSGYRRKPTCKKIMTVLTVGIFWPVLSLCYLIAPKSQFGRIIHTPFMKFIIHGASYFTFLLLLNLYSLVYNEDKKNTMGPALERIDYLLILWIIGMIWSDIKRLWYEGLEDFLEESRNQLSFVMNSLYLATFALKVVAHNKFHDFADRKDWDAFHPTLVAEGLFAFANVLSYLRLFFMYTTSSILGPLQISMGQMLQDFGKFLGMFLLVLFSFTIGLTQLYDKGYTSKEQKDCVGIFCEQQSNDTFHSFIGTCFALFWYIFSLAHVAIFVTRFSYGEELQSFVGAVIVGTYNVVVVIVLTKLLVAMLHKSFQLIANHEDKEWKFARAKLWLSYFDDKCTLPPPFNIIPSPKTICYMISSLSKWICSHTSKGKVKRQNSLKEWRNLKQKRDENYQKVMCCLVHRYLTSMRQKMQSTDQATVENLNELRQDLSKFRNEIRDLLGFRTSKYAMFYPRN
# T4 sequence (Q9HBA0 whole entry): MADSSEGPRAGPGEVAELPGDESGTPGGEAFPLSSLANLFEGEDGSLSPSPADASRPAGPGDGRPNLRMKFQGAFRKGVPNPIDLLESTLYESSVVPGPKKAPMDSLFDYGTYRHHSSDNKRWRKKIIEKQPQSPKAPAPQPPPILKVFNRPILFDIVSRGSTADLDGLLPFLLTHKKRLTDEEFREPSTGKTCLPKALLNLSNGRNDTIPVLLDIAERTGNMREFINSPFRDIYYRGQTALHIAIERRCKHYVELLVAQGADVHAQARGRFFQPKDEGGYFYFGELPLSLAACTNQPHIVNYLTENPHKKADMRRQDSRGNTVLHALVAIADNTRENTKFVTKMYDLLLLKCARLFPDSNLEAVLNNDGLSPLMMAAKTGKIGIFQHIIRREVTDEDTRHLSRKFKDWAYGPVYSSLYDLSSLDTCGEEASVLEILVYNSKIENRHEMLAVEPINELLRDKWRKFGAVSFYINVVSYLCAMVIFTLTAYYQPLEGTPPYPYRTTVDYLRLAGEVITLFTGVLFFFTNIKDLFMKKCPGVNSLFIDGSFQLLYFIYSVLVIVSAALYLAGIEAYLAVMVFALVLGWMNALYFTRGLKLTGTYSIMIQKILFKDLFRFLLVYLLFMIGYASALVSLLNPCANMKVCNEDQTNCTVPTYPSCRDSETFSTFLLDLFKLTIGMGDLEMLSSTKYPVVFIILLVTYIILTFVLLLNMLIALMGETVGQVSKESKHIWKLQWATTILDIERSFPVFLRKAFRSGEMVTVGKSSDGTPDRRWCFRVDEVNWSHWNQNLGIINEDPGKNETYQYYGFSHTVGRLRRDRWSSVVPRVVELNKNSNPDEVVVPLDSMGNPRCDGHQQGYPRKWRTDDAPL
smiles,measurement,setting,value
"O=c1c(O)c(-c2ccccc2Br)oc2cc(O)cc(O)c12 [AM12, 3,5,7‐trihydroxy‐2‐(2‐bromophenyl)‐4H‐chromen‐4‐one]",effect on TRPM2 channels,TRPM2 channels,no effect
same,effect on Ca2+ entry through TRPC3 channels,TRPC3 channels,did not reach statistical significance
same,recovery on washout,human TRPC5 [1],fast recovery on washout
same,effect on Ca2+ entry through TRPV4 channels,TRPV4 channels [2],significant stimulatory effect
same,IC50,"human TRPC5 [3]; TRPC5 (Tet+) HEK 293, Gd3+, fura-2, read-out: IC50, inhibition of Gd3+-evoked Ca2+ entry",280 nM
same,effect on S1P-evoked Ca2+ entry,human TRPC5 [4]; 5 μM S1P,stimulated rather than inhibited
same,effect on LPC-evoked Ca2+ entry,human TRPC5 [4]; 10 μM LPC,enhanced
same,effect on S1P and LPC responses in Tet- cells,[5],no effects
same,effect on ATP response in the presence of extracellular Ca2+,[5]; 100 μM ATP,enhanced
same,inhibition of TRPC1-TRPC5 heteromeric channel current,[6],~ 20%
same,average inhibition of TRPC4 current,TRPC4,~ 80%
same,effect on Ca2+ release evoked by thapsigargin,[7]; 3 μM thapsigargin,no effect
same,effect on Ca2+ release evoked by ATP,[7]; 100 μM ATP,no effect
O=c1cc(-c2ccc(O)cc2)oc2cc(O)cc(O)c12 [Apigenin],effect on TRPC5-mediated whole-cell current (no other activator),human TRPC5 [8],stimulate
same,effect on TRPV4 channels,TRPV4 channels [9],stimulating
same,effect on Gd3+-evoked Ca2+ entry (natural flavonoid screen),"human TRPC5 [3]; 10 μM, 50 μM Gd3+, XRhod-1",stimulatory effect
same,effect on GABA-evoked ionic currents,[10],inhibited
O=c1c(-c2ccc(O)cc2)coc2cc(O)cc(O)c12 [genistein],effect on TRPC5,TRPC5,stimulated
same,effect on 3T3-L1 cell proliferation and differentiation,3T3-L1 cells,inhibited proliferation and subsequent differentiation
